Data on 35 molecules can be found in PubChem BioAssay AID1645864 (Buhrlage Lab, Dana-Farber Cancer Institute and Novartis …, 2021).

Calls of active or inactive are those of the source.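 The calls were made as follows: active = maximal inhibition of USP17 at or above 30% in the confirmation dose-response, a value not among the printed readouts; inactive = the rest.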

Ubiquitin carboxyl-terminal hydrolase 17-like protein 5 (Homo sapiens), sequence (A8MUK1 whole entry, looked up): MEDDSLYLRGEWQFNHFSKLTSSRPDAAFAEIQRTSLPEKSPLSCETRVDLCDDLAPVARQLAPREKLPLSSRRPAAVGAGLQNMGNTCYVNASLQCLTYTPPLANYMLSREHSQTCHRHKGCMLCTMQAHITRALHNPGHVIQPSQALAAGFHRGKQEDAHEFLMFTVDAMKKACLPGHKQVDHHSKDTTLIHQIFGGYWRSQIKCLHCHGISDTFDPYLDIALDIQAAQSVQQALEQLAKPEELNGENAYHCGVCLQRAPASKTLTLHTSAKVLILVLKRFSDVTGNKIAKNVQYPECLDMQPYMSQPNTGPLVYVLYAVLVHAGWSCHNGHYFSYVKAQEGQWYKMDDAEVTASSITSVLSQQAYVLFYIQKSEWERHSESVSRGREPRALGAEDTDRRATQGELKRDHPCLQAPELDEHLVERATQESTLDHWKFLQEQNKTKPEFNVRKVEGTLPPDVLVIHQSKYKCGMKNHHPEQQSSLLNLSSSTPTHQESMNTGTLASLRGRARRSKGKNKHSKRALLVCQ

The assay addresses Ubiquitin carboxyl-terminal hydrolase 17-like protein 5 (Homo sapiens) (UniProt A8MUK1). Kind of assay: ubiquitin-specific protease 17 DUB inhibitors, concentration-effect assay, cell-free, verification of initial screening actives (AID 1645864). The conditions noted are these: purified USP17, ubiquitin-rhodamine cleavage fluorescence, 3 h.
Broadly, the IC50 is the concentration needed to halve the response being measured. In the case of `COc1ccccc1-c1nc2c3c(C)c(C)n(-c4ccc(Br)cn4)c3ncn2n1`, the IC50 was 0.567 µM.
The figure for `Cc1cc(C(=O)N2CC(C(=O)Nc3cc(C(F)(F)F)ccc3Cl)C2)no1` is 38.4 µM; for `CC(=O)NCc1nc(-c2ccc3c(c2)nc(C)c(=O)n3C2CCCC2)no1` it is > 50 µM (inactive); for `Fc1ccc(Nc2nc(Nc3cccc(F)c3)nc3nccnc23)cc1` it is > 50 µM (inactive).
With `O=C(OCc1ccc(Br)cc1)c1ccc2ccccc2n1`, the IC50 is > 50 µM (inactive).
In the case of `CCC(C)c1ccc(-c2csc(Cn3c(CN4CCN(C)CC4)nc4ccccc4c3=O)n2)cc1` (stereo not given) it was 3.29 µM.
For the molecule `Cc1ccccc1-c1nc(CN(C)S(=O)(=O)c2ccccc2)c(C)o1`, the IC50 was > 50 µM (inactive).
The figure for `COc1ccc(NC(=O)Cn2cc(C(=O)c3ccc(C)cc3)c(=O)c3ccccc32)cc1` is 1.98 µM.
The figure for `CCOC(=O)c1cnc(C(F)(F)F)nc1Sc1n[nH]c(-c2cccs2)n1` is > 50 µM (inactive); for `Cc1cccc(OCCn2c(CCNC(=O)C3CCCCC3)nc3ccccc32)c1` it is 28.6 µM.
For `Cc1ccc(NC(=O)c2cc(=O)n(C)c3c2c(=O)n(C)c(=O)n3C)c(C)c1`, the IC50 is > 50 µM (inactive).
In the case of `CCc1ccc(C2c3c(oc4ccccc4c3=O)C(=O)N2c2nncs2)cc1` (stereo not given) it was > 50 µM (inactive); in that of `Cc1cc(-n2c(C)cc(-c3csc(N)n3)c2C)no1`, > 50 µM (inactive).
In the case of `CN(C)Cc1ccc(C(=O)Nc2ccc(-c3nccs3)cc2)cc1` it was > 50 µM (inactive).
The figure for `O=C(/C=C/c1ccc(F)cc1)N1CCC(Cc2ccccc2)CC1` is 41.8 µM; for `COc1cccc(CN2CCc3nc4nc(C)ccc4cc3C2)c1` it is > 50 µM (inactive).
In the case of `CCC(C)Oc1cccc(C(=O)Nc2ccc(CN3CCOCC3)cc2)c1` (stereo not given), the IC50 is > 50 µM (inactive).
For the molecule `CSc1ncccc1C(=O)OCc1ccc(Br)cc1`, the IC50 was > 50 µM (inactive).
For `COc1ccc(N(CC(=O)NC2CCCCC2)C(=O)c2ccc(-c3ccccc3)[nH]2)cc1OC`, the IC50 is 3.04 µM.
`O=C(Cn1c(=O)n(CCCC(=O)N2CC=C(c3ccccc3)CC2)c(=O)c2ccccc21)NCCC1=CCCCC1`: the IC50 was 35 µM.
The figure for `O=c1[nH]c(C2CCN(S(=O)(=O)c3ccc(S(=O)(=O)NC4CCCCC4)cc3)CC2)nc2c1nnn2Cc1c(F)cccc1Cl` is 22.1 µM; for `CCOC(=O)c1ccc(NC(=O)COc2cccc3c2CCN(CC)C3=O)cc1` it is > 50 µM (inactive).
As for `Cc1c(C)n(-c2ccccc2)c2ncn(CC(=O)NCCCc3ccccc3)c(=O)c12`, the IC50 is 34.4 µM.
Consider `CC(C)(C)c1cc(CCC(=O)Nc2c3c(nc4c2CCC4)CCCC3)cc(C(C)(C)C)c1O`, for which the IC50 was > 50 µM (inactive).
Turning to `COc1ccc(CCNC(=O)COc2ncnc3oc(C)c(C)c23)cc1OC`, the IC50 was > 50 µM (inactive).
For `C[C@@H]1OC2=C(C(=O)c3cccc(O)c3C2=O)[C@H](O)[C@@H]1O`, the IC50 is 0.31 µM.
Consider `O=C(Nc1ccc(F)cc1F)c1csc(-c2ccccc2)n1`, for which the half-maximal inhibitory concentration (IC50) is 39.2 µM.
Take `O=S(c1ccc2ccccc2c1)c1cnns1` (stereo not given): the IC50 was > 50 µM (inactive).
The figure for `Cc1ccc(O)c(-c2cc(C(=O)Nc3ccccc3Cl)[nH]n2)c1` is 8.32 µM; for `O=C(NCc1ccc(CN2CCCC2)cc1)c1cc2ccccc2[nH]c1=O` it is 28.4 µM.
Turning to `Cc1sc(NC(=O)CN2CCc3ccccc3C2)nc1-c1ccc2c(c1)CCN2C(=O)C1CCCCC1`, the IC50 was > 50 µM (inactive).
The figure for `Cc1ccc2nc(NC(=O)C3CCCN3S(=O)(=O)c3ccc4c(c3)OCCO4)sc2c1` (stereo not given) is > 50 µM (inactive).
In the case of `CN(C)c1cccc(C(=O)Nc2cc(-c3cccnc3)no2)c1`, the IC50 was 26.9 µM.
In the case of `Cc1sc(-c2cccnc2)nc1OC(=O)c1ccc(Cl)c(Cl)c1` it was > 50 µM (inactive).
In the case of `O=C(CSc1ccc(-c2cccc([N+](=O)[O-])c2)nn1)Nc1cccc(F)c1` it was 2.7 µM.
